Results from patent publication US20250049799A1, “Targeted Therapy of Pyrrolo[2,3-D]Pyrimidine Antifolates in a Syngeneic Mouse Model of High Grade Serous Ovarian Cancer” (Duquesne University of The Holy Spirit, priority 2021, published 2025).
Like-named read-outs stand apart in the source and are kept apart here.

Experiments:
FRβ = FRβ (Homo sapiens, UniProt P14207); details: comparison of Table 3 values with PMX
[1] = system: BR-Luc mouse HGSOC tumor cells; assay: Cell proliferation assay (CellTiter-blue, 96 h), BR-Luc cells; type: cell-based
Procedure: (§1) Results with BR-5 and BR-Luc cells were compared to those for IGROV1 human EOC cells (Table 1) in the absence and presence of excess folic acid (200 nM), which selectively blocks FR-mediated drug uptake without effects on RFC or PCFT^6. […] Further, inhibitions of the murine EOCs by all compounds approximated those for IGROV1 human EOC cells.
(§2) Cell proliferation assays were performed as described^6, 21. Cells were plated in 96-well dishes at densities ranging from 2500-5000 cells/well in 200 μL media and treated with a range of inhibitors spanning 0-1000 nM. Experiments used BR-5 and BR-Luc cells and folate-free RPMI 1640 media with 10% dialyzed FBS and 100 units/mL penicillin/100 μg/mL streptomycin, supplemented with 25 nM leucovorin and 2 mM L-glutamine. FR-mediated drug uptake was assessed in parallel incubations including 200 nM folic acid. Cells were treated over a 96 h period at 37° C. with 5% CO2 and relative cell numbers were quantified using the CellTiter-blue cell viability assay (Promega, Madison, WI) and a fluorescence plate reader^21. Raw data were exported to Excel for analysis and the results plotted using Graphpad Prism 6.0.

[2] = system: BR-5 mouse HGSOC tumor cells; assay: Cell proliferation assay (CellTiter-blue, 96 h), BR-5 cells; type: cell-based
Procedure: as §1, §2

IGROV1 human EOC cells = assay: Cell proliferation assay, IGROV1 cells; type: cell-based
Procedure: as §1, §2

Sequence of FRβ (P14207 17-230): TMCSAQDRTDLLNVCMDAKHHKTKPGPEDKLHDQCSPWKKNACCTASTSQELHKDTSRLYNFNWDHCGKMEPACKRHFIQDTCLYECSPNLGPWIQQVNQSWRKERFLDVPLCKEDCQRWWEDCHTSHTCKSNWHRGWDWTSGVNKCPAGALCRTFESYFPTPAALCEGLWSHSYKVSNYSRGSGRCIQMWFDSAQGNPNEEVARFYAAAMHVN

## Nc1nc2[nH]c(CCCCc3ccc(C(=O)N[C@@H](CCC(=O)O)C(=O)O)nc3)cc2c(=O)[nH]1 [Compound 4]
FRβ
  Transport by folate receptor beta compared with pemetrexed (PMX): at least ten times better transported

## N.N.[Cl][Pt][Cl] [Cisplatin, reference compound]
[1]; no folic acid, folate-free RPMI1640, 25 nM leucovorin, mean ± SE, read-out: IC50 anti-proliferative activity BR-Luc, No addition
  IC50: 290 ± 170 nM
[2]; no folic acid, mean ± SE, read-out: IC50 anti-proliferative activity BR-5, No addition
  IC50: 160 ± 110 nM
IGROV1 human EOC cells; no folic acid, mean ± SE, read-out: IC50 anti-proliferative activity IGROV1, No addition
  IC50: 857 ± 62.3 nM

## Nc1nc2[nH]c(CCCCc3csc(C(=O)N[C@@H](CCC(=O)O)C(=O)O)c3)cc2c(=O)[nH]1 [Compound 5]
FRβ
  Transport by folate receptor beta compared with pemetrexed (PMX): at least ten times better transported

## Nc1nc2[nH]c(CCCCc3ccc(C(=O)N[C@@H](CCC(=O)O)C(=O)O)cc3)cc2c(=O)[nH]1 [Compound 2]
FRβ
  Transport by folate receptor beta compared with pemetrexed (PMX): at least ten times better transported

## Nc1nc2[nH]c(CCCc3ccc(C(=O)N[C@@H](CCC(=O)O)C(=O)O)s3)cc2c(=O)[nH]1 [Compound 1]
FRβ
  Transport by folate receptor beta compared with pemetrexed (PMX): at least ten times better transported

## Nc1nc2[nH]c(CCCCc3csc(C(=O)N[C@@H](CCC(=O)O)C(=O)O)c3F)cc2c(=O)[nH]1 [AGF278]
[1]; Mus musculus, no folic acid, folate-free RPMI1640, 25 nM leucovorin, mean ± SE, read-out: IC50 anti-proliferative activity BR-Luc, No addition
  IC50: 6.06 ± 3.12 nM
[1]; Mus musculus, read-out: IC50 anti-proliferative activity BR-Luc, Folic Acid (200 nM), with 200 nM folic acid, mean ± SE
  IC50: 588 ± 162 nM
[2]; Mus musculus, no folic acid, mean ± SE, read-out: IC50 anti-proliferative activity BR-5, No addition
  IC50: 6.55 ± 3.24 nM
[2]; Mus musculus, read-out: IC50 anti-proliferative activity BR-5, Folic Acid (200 nM), with 200 nM folic acid, mean ± SE
  IC50: 547 ± 188 nM
IGROV1 human EOC cells; Homo sapiens, IGROV-1, no folic acid, mean ± SE, read-out: IC50 anti-proliferative activity IGROV1, No addition
  IC50: 1.9 ± 0.15 nM
IGROV1 human EOC cells; Homo sapiens, IGROV-1, read-out: IC50 anti-proliferative activity IGROV1, Folic Acid (200 nM), with 200 nM folic acid, mean ± SE
  IC50: 426 ± 152 nM
FRβ
  Transport by folate receptor beta compared with pemetrexed (PMX): at least ten times better transported

## Nc1nc2[nH]c(CCCCc3cnc(C(=O)N[C@@H](CCC(=O)O)C(=O)O)c(F)c3)cc2c(=O)[nH]1 [Compound 10]
FRβ
  Transport by folate receptor beta compared with pemetrexed (PMX): at least ten times better transported

## Nc1nc2[nH]c(CCCCc3ccc(C(=O)N[C@@H](CCC(=O)O)C(=O)O)c(F)c3)cc2c(=O)[nH]1 [Compound 8]
FRβ
  Transport by folate receptor beta compared with pemetrexed (PMX): at least ten times better transported
